Source: patent publication US20100203634A1, “Inhibition of stem cell differentiation, enhancement of proliferation and selective induction of apoptosis by Wnt factors” (DeltaCell B.V., priority 2003, published 2010)
Entries after “also recorded” stand apart in the source; their conditions may differ.

Columns and labels:
fetal lung explants = test: Fetal murine lung explant culture (hanging drop), stereomicroscopy and H/E histology of differentiation; assay type: cell-based, mouse
Source text: To provide proof of evidence, an in vitro explant lung culture (obtained from a mouse) is used. Generation of new alveolar tissue in patients is stimulated by activation or re-activation of alveolar bud formation. Growth and branching of alveolar buds, followed by transformation into alveolar ducts, sacs and pouches, results in the establishment of pulmonary acini.
As a proof of evidence, it is, therefore, shown that treatment with selected molecules involved in a Wnt pathway inhibits the differentiation process of alveolar differentiation. Inhibition of this differentiation process is achieved by applying a purified Wnt3a polypeptide to an in vitro lung explant culture of 13-day-old (E13) mouse embryos.
The (fetal) murine lung explant culture was generated according to our standard protocol. Briefly, complete lungs or individually dissected lung lobes were isolated from fetal mice and cultured for one to five days in a hanging drop culture system. The Wnt3a polypeptide was administered to the culture medium in different concentrations, ranging from 0 to 4000 ng/ml. The effect of this treatment was monitored by stereomicroscopy. The lung explant cultures were subsequently fixed for 30 minutes in 10% paraformaldehyde (PFA), 30 minutes in 2% PFA and 30 minutes in 4% PFA. After fixation, the lung explants were dehydrated through an increasing series of 2-isopropanol and subsequently embedded in paraffin. For the histological analysis, 4 μm thick sections were cut and stained with Hematoxilin and Eosin using standard techniques.
As a source for Wnt3a, recombinant mouse Wnt3a from R&D Systems (catalog nr. 1324-WN, R&D Systems, Inc. Minneapolis USA) was used. As culture medium, DMEM/HAM's F12 (1:1) from Biochrom AG, catalog nr. FG 4815, was used.

[1] = system: fetal lung explants (E12.5); test: Quantification of cell proliferation using phospho histon H3 immunohistochemistry; assay type: cell-based, mouse
Description: The number of cells undergoing mitosis was measured using immunohistochemical detection of phosphorylated histon H3, which is present only on condensed chromosomes during mitosis. Per condition, at least four different lung explants were treated and in total, 20 sections per condition were counted for phospho histon H3-positive cells by two different investigators. The primary antibody against phopho histon H3 (Ser10, clone 6G3) was purchased from Cell Signaling Technology and used according to the recommendations of the supplier.
To further determine the short-term effect of different Wnt3A concentrations upon the induction of proliferation, lung explants (E12.5) were cultured for one day with 0, 30, 125 and 500 ng/ml Wnt3a.
The lung explants were processed for immunohistochemical analysis and stained for Histon H3 phosphorylation, which can be used as a quantifiable cell proliferation marker as it is present in a fixed amount on condensed chromosomes only during active cell division (material and methods). […] However, most of the increase in proliferation could be accounted to the mesenchyme, where an increase in 40 to 60% of cells undergoing […] was observed.

[2] = system: Wnt-signaling pathway in human epithelial lung carcinoma cell line A549; test: TopFlash/FopFlash reporter assay, A549; assay type: cell-based; settings: A549, 20 hours
Description: (§1) Primary mouse fibroblasts isolated from E12.5 lung explants, the human epithelial lung carcinoma cell line A549 cells (ATCC CCL-185), the human epithelial lung adenocarcinoma cell line Calu-3 (ATCC_HTB-55) and the normal human fetal lung fibroblast cell line HFL-1 cells (ATCC—153) were cultured in 96-well plates and transfected with the TopFlash and FopFlash reporter constructs using lipofectamine 2000 according to the manufacturer's instructions. As an internal control for transfection efficiency, a constitutive renilla luciferase reporter (Promega) was cotransfected. The cells were transfected with the above-mentioned reporter constructs and simultaneously treated with different concentrations of Wnt3A for 20 hours, after which the cells were lysed and luciferase expression was measured using a Berthold luminometer for two seconds (V. Korinek et al., Mol. Cell. Biol. 18:1248-1256, 1998). […]
(§2) In order to analyze if Wnt3A is able to activate the Wnt signal-transduction pathway in humans, we stimulated three different cell lines from human origin with Wnt3A and measured the response with the TopFlash/FopFlash reporter assay. The three human lung-derived cell lines analyzed were the lung epithelial carcinoma cell line A549 (FIG. 9B), the normal lung fibroblast line HFL-1 (FIG. 9C), and the epithelial adenocarcinoma cell line calu-3 (FIG. 9D).

[3] = system: Wnt-signaling pathway in human epithelial lung adenocarcinoma cell line Calu-3; test: TopFlash/FopFlash reporter assay, Calu-3; assay type: cell-based; settings: calu-3, 20 hours
Description: as §1, §2

[4] = system: fetal lung explants (E12.5); test: Expression profiling of lung explants, Affymetrix MOE430AB microarray; assay type: cell-based, mouse
Description: To further investigate the effect of Wnt3A inhibition on lung differentiation, we analyzed the expression profiles of Wnt3A-treated lung explants with microarray analysis using the Affymetrix chip set MOE430AB, containing the complete mouse transcriptome. The lung explants, per condition, ten complete fetal lungs isolated from E12.5 embryos, were treated for four hours with 0 and 250 ng/ml Wnt3A (Wnt0/4 hr and Wnt250/4 hr, respectively), and for 24 hours with 0, 10, 50 and 250 ng/ml Wnt3A ([…], […], Wnt50/24 hr, Wnt250/24 hr, respectively). The 60 lung explants were isolated together from six pregnant Swiss mice and randomly distributed over the six different conditions.
After the indicated time period, total RNA was isolated, which was processed for the synthesis of a probe for hybridization onto the MOE-430AB chip sets. […] A rapid response was observed when the lungs were treated for four hours with 250 ng/ml Wnt3A.

[5] = 250 ng/ml, four hours, versus 0 ng/ml four hours
[6] = 24 hours, "the ng/ml wnt3a-treated group"

Substance: Wnt3a
- differentiation of the epithelium (fetal lung explants; 500 ng/ml, four days): delayed; also recorded: undifferentiated character of the epithelium
- differentiation of the primordial lung epithelium (histology) (fetal lung explants; 1000 ng/ml, five-day-old cultures): arrested at a stage comparable to that of the start of the culture (E13); also recorded: strong inhibitory effect on the development and differentiation of the fetal lung; also recorded: arrest of alveolar differentiation
- effect on cell viability (fetal lung explants; 2000 ng/ml): affects the viability of all cells
- effect on lung development (stereomicroscopy) (fetal lung explants; 2000 ng/ml and 4000 ng/ml, after one day): deleterious effect on lung development
- complete block of differentiation of fetal lung development (fetal lung explants; 4, 20, 100 and 500 ng/ml, four days): None of these concentrations was effective in completely blocking the differentiation
- lung differentiation (stereomicroscopy) (fetal lung explants; E13 lung explants, 1000 ng/ml, after 16 hours): total block of lung differentiation
- differentiation and alveolar development (stereomicroscopy) (fetal lung explants; E13 lung explants, 1000 ng/ml, five days culture): no significant differentiation and alveolar development could be observed
- effects at the level of apoptosis and differentiation compared to control (fetal lung explants; between 4 and 20 ng/ml, four days): no clear effects were visible
- concentration at which differentiation was strongly retarded with many picnotic cells (fetal lung explants; histological examination at day 4): above 100 ng/ml
- concentration that does not show clear morphological changes (fetal lung explants; lung explants): below 1 ng/ml
- effect on proliferation ([1]; 30 ng/ml, after one day): markedly increases proliferation
- increase in overall proliferation (phospho histon H3-positive cells) ([1]; 30, 125 and 500 ng/ml, one day): > 20%
- concentration at which the maximum stimulatory effect on proliferation was reached ([1]; one day): ≤ 30 ng/mL
- TopFlash/FopFlash reporter response [2]: respond to Wnt3A in a dosage-dependent manner; also recorded: strong induction of the Wnt-signaling pathway
- TopFlash/FopFlash reporter response [3]: respond to Wnt3A in a dosage-dependent manner; also recorded: strong induction of the Wnt-signaling pathway
- changes in gene expression ([4]; 10 ng/ml, 24 hours): capable of inducing significant changes in gene expression
- down-regulated genes ([4]; 50 ng/ml, 24 hours): 92 genes
- up-regulated genes ([4]; 50 ng/ml, 24 hours): 95 genes
- genes whose four-hour profile is opposite from the 24-hour Wnt3A-treated profiles ([4]; 250 ng/ml four hours versus 24-hour groups): circa 75%
- down-regulated genes, more than two-fold ([4]; 250 ng/ml, 24 hours): 152 genes
- up-regulated genes, more than two-fold ([4]; 250 ng/ml, 24 hours): 195 genes
- down-regulated genes, more than two-fold [4, 5]: 1165 genes
- up-regulated genes, more than two-fold [4, 5]: 446 genes
- cluster analysis of expression profiles of 4500 genes: effect on differentiation ([4]; 10, 50 and 250 ng/ml, 24 hours): inhibits, at least partially, the differentiation of fetal lung tissue; also recorded: inhibits lung differentiation and development
- down-regulated genes, more than two-fold [4, 6]: 223 genes
- up-regulated genes, more than two-fold [4, 6]: 209 genes
